This series deals with rodent lifetime carcinogenesis bioassay, tumor incidence TD50. Put plainly: chronic cancer bioassays in animals – CPDB, compiled studies (AID 1745844).

Activity calls are given as the source filed them. No rule for the calls is given here.

As usually defined, the TD50 is the dose at which the toxic effect under study appears in half of the subjects. Take `O=[N+]([O-])c1ccc(-c2cscn2)o1`: the TD50 is 7.68 mg/kg/day (rat, strain Sprague-Dawley albino, females, in feed, site: any site (literature study), lesion: several types, types named in the paper, dosed 46 weeks, study length 68 weeks); 19.5 mg/kg/day (rat, strain Sprague-Dawley albino, females, in feed, site: forestomach, lesion: squamous-cell carcinoma, dosed 46 weeks, study length 68 weeks); 15.6 mg/kg/day (rat, strain Sprague-Dawley albino, females, in feed, site: mammary gland, lesion: fibroadenoma, dosed 46 weeks, study length 68 weeks).
With `CCCCCN(CCCCC)N=O`, the TD50 reads like this: (rat, strain Fischer 344, females, in feed, site: liver, lesion: hepatocellular carcinoma, dosed 99 weeks, study length 104 weeks) 7.57 mg/kg/day; (rat, strain Fischer 344, males, in feed, site: liver, lesion: hepatocellular carcinoma, dosed 89 weeks, study length 104 weeks) 2.75 mg/kg/day.
On to `OC(c1ccc(Cl)cc1)(c1ccc(Cl)cc1)C(Cl)(Cl)Cl`, for which the carcinogen call was “negative (inactive)” (mouse, strain B6C3F1, females, in feed, site: any site (literature study), lesion: several types, types named in the paper, dosed 78 weeks, study length 91 weeks); “negative (inactive)” (rat, strain Osborne-Mendel, females, in feed, site: any site (literature study), lesion: several types, types named in the paper, dosed 78 weeks, study length 111 weeks); “negative (inactive)” (rat, strain Osborne-Mendel, males, in feed, site: any site (literature study), lesion: several types, types named in the paper, dosed 78 weeks, study length 110 weeks). Also, the TD50 was 59.2 mg/kg/day (mouse, strain B6C3F1, males, in feed, site: any site (literature study), lesion: several types, types named in the paper, dosed 78 weeks, study length 91 weeks); 32.9 mg/kg/day (mouse, strain B6C3F1, males, in feed, site: liver, lesion: hepatocellular adenoma + hepatocellular carcinoma + neoplastic nodule, dosed 78 weeks, study length 91 weeks); 32.9 mg/kg/day (mouse, strain B6C3F1, males, in feed, site: liver, lesion: hepatocellular adenoma + hepatocellular carcinoma, dosed 78 weeks, study length 91 weeks); 34.8 mg/kg/day (mouse, strain B6C3F1, males, in feed, site: liver, lesion: hepatocellular carcinoma, dosed 78 weeks, study length 91 weeks); 616 mg/kg/day (mouse, strain B6C3F1, males, in feed, site: lung, lesion: alveolar/bronchiolar adenoma + alveolar/bronchiolar carcinoma, dosed 78 weeks, study length 91 weeks); 517 mg/kg/day (rat, strain Osborne-Mendel, males, in feed, site: liver, lesion: hepatocellular adenoma + hepatocellular carcinoma + neoplastic nodule, dosed 78 weeks, study length 110 weeks).
As for `CN[C@H]1CCc2cc(OC)c(OC)c(OC)c2-c2ccc(OC)c(=O)cc21`, the TD50 was 0.248 mg/kg/day (inactive) (rat, strain BR 46, males, i.v., site: any site (literature study), lesion: benign tumor, dosed 52 weeks, study length 104 weeks); 0.129 mg/kg/day (inactive) (rat, strain BR 46, males, i.v., site: any site (literature study), lesion: malignant tumor, dosed 52 weeks, study length 104 weeks); 0.0787 mg/kg/day (inactive) (rat, strain BR 46, males, i.v., site: any site (literature study), lesion: several types, types named in the paper, dosed 52 weeks, study length 104 weeks).
Consider `CN(N=O)c1ccccc1`, for which the TD50 (rat, strain Chester Beatty albino, females, in drinking water, site: esophagus, lesion: benign tumor, dosed 67 weeks, study length 67 weeks) was 32 mg/kg/day; the TD50 (rat, strain Chester Beatty albino, females, in drinking water, site: esophagus, lesion: squamous-cell carcinoma, dosed 67 weeks, study length 67 weeks) is 26.4 mg/kg/day; the TD50 (rat, strain Chester Beatty albino, males, in drinking water, site: esophagus, lesion: benign tumor, dosed 60 weeks, study length 60 weeks) is 70.4 mg/kg/day; the TD50 (rat, strain Chester Beatty albino, males, in drinking water, site: esophagus, lesion: several types, types named in the paper, dosed 60 weeks, study length 60 weeks) is 5.27 mg/kg/day; the TD50 (rat, strain Chester Beatty albino, males, in drinking water, site: esophagus, lesion: squamous-cell carcinoma, dosed 60 weeks, study length 60 weeks) was 10.5 mg/kg/day; the TD50 (rat, strain Fischer 344, females, in drinking water, site: esophagus, lesion: carcinoma, dosed 50 weeks, study length 114 weeks) is 0.458 mg/kg/day. For the same compound, the TD50 by setting is: (rat, strain Fischer 344, males, in drinking water, site: esophagus, lesion: several types, types named in the paper, dosed 50 weeks, study length 114 weeks) 0.272 mg/kg/day; (rat, strain Sprague-Dawley, both sexes, in drinking water, site: esophagus, lesion: several types, types named in the paper, dosed 104 weeks, study length 104 weeks) 0.0343 mg/kg/day. Also, the carcinogen call is, setting by setting: (rat, strain Chester Beatty albino, females, in drinking water, site: esophagus, lesion: several types, types named in the paper, dosed 67 weeks, study length 67 weeks) “positive”; (rat, strain Chester Beatty albino, females, in drinking water, site: liver, lesion: one or several types, types not named, dosed 67 weeks, study length 67 weeks) “negative (inactive)”; (rat, strain Chester Beatty albino, males, in drinking water, site: liver, lesion: one or several types, types not named, dosed 60 weeks, study length 60 weeks) “negative (inactive)”.
As for `CCCCNC(=O)N(CCCC)N=O`, the TD50 runs as follows: (rat, strain Donryu, females, in drinking water, site: all sites, lesion: leukemia, dosed 75 weeks, study length 75 weeks) 32 mg/kg/day; (rat, strain Donryu, females, in drinking water, site: any site (literature study), lesion: several types, types named in the paper, dosed 75 weeks, study length 75 weeks) 2.67 mg/kg/day; (rat, strain Donryu, females, in drinking water, site: liver, lesion: adenoma, dosed 75 weeks, study length 75 weeks) 303 mg/kg/day; (rat, strain Donryu, females, in drinking water, site: mammary gland, lesion: adenocarcinoma, dosed 75 weeks, study length 75 weeks) 22.7 mg/kg/day; (rat, strain Donryu, females, in drinking water, site: mammary tissue, wider than the gland, lesion: fibroadenoma, dosed 75 weeks, study length 75 weeks) 2.23 mg/kg/day; (rat, strain Donryu, females, in drinking water, site: mammary tissue, wider than the gland, lesion: several types, types named in the paper, dosed 75 weeks, study length 75 weeks) 4.28 mg/kg/day. The TD50 (rat, strain Donryu, females, in drinking water, site: uterus, lesion: several types, types named in the paper, dosed 75 weeks, study length 75 weeks) is 15.3 mg/kg/day.
For `COc1ccc(N)cc1N`, the TD50 by setting is: (mouse, strain B6C3F1, females, in feed, site: all sites, lesion: lymphoma, dosed 78 weeks, study length 96 weeks) 262 mg/kg/day; (mouse, strain B6C3F1, females, in feed, site: any site (literature study), lesion: several types, types named in the paper, dosed 78 weeks, study length 96 weeks) 311 mg/kg/day; (mouse, strain B6C3F1, females, in feed, site: liver, lesion: hepatocellular adenoma + hepatocellular carcinoma + neoplastic nodule, dosed 78 weeks, study length 96 weeks) 7350 mg/kg/day; (mouse, strain B6C3F1, females, in feed, site: lung, lesion: alveolar/bronchiolar adenoma + alveolar/bronchiolar carcinoma, dosed 78 weeks, study length 96 weeks) 10900 mg/kg/day; (mouse, strain B6C3F1, females, in feed, site: thyroid gland, lesion: follicular-cell adenoma + follicular-cell carcinoma, dosed 78 weeks, study length 96 weeks) 1060 mg/kg/day; (mouse, strain B6C3F1, females, in feed, site: thyroid gland, lesion: follicular-cell adenoma, dosed 78 weeks, study length 96 weeks) 1450 mg/kg/day. The TD50 is, setting by setting: (mouse, strain B6C3F1, males, in feed, site: any site (literature study), lesion: several types, types named in the paper, dosed 78 weeks, study length 96 weeks) 354 mg/kg/day; (mouse, strain B6C3F1, males, in feed, site: liver, lesion: hepatocellular adenoma + hepatocellular carcinoma + neoplastic nodule, dosed 78 weeks, study length 96 weeks) 926 mg/kg/day; (mouse, strain B6C3F1, males, in feed, site: lung, lesion: alveolar/bronchiolar adenoma + alveolar/bronchiolar carcinoma, dosed 78 weeks, study length 96 weeks) 2560 mg/kg/day; (mouse, strain B6C3F1, males, in feed, site: thyroid gland, lesion: follicular-cell adenoma, dosed 78 weeks, study length 96 weeks) 791 mg/kg/day; (rat, strain Fischer 344, females, in feed, site: Zymbal's gland, lesion: sebaceous adenocarcinoma, dosed 78 weeks, study length 107 weeks) 665 mg/kg/day; (rat, strain Fischer 344, females, in feed, site: any site (literature study), lesion: several types, types named in the paper, dosed 78 weeks, study length 107 weeks) 181 mg/kg/day. Further, the TD50 by setting is: (rat, strain Fischer 344, females, in feed, site: any site (literature study), lesion: several types, types named in the paper, dosed 83 weeks, study length 86 weeks) 67.3 mg/kg/day; (rat, strain Fischer 344, females, in feed, site: clitoral gland + uterus, endometrium, lesion: carcinoma, NOS + adenocarcinoma, NOS + papillary carcinoma, dosed 78 weeks, study length 107 weeks) 408 mg/kg/day; (rat, strain Fischer 344, females, in feed, site: clitoral gland, lesion: adenoma, NOS + carcinoma, NOS + cystadenoma, NOS + squamous-cell carcinoma + squamous-cell papilloma, dosed 78 weeks, study length 107 weeks) 416 mg/kg/day; (rat, strain Fischer 344, females, in feed, site: clitoral gland, lesion: several types, types named in the paper, dosed 83 weeks, study length 86 weeks) 113 mg/kg/day; (rat, strain Fischer 344, females, in feed, site: clitoral gland, lesion: squamous-cell carcinoma, sebaceous, dosed 83 weeks, study length 86 weeks) 162 mg/kg/day; (rat, strain Fischer 344, females, in feed, site: liver, lesion: hepatocellular adenoma + hepatocellular carcinoma + neoplastic nodule, dosed 78 weeks, study length 107 weeks) 14500 mg/kg/day. The TD50 reads like this: (rat, strain Fischer 344, females, in feed, site: mammary gland, lesion: several types, types named in the paper, dosed 83 weeks, study length 86 weeks) 1290 mg/kg/day; (rat, strain Fischer 344, females, in feed, site: thyroid gland + Zymbal's gland, lesion: adenocarcinoma, NOS + follicular-cell carcinoma + papillary cystadenocarcinoma, NOS + sebaceous adenocarcinoma, dosed 78 weeks, study length 107 weeks) 301 mg/kg/day; (rat, strain Fischer 344, females, in feed, site: thyroid gland, lesion: adenocarcinoma, NOS + follicular-cell carcinoma + papillary cystadenocarcinoma, NOS, dosed 78 weeks, study length 107 weeks) 425 mg/kg/day; (rat, strain Fischer 344, females, in feed, site: thyroid gland, lesion: follicular-cell adenoma, dosed 83 weeks, study length 86 weeks) 296 mg/kg/day; (rat, strain Fischer 344, females, in feed, site: thyroid gland, lesion: several types, types named in the paper, dosed 83 weeks, study length 86 weeks) 162 mg/kg/day; (rat, strain Fischer 344, males, in feed, site: any site (literature study), lesion: several types, types named in the paper, dosed 78 weeks, study length 107 weeks) 135 mg/kg/day. The TD50 was 709 mg/kg/day (rat, strain Fischer 344, males, in feed, site: ear canal + ear + Zymbal's gland, lesion: sebaceous adenocarcinoma + squamous-cell carcinoma, dosed 78 weeks, study length 107 weeks); 72.6 mg/kg/day (rat, strain Fischer 344, males, in feed, site: ear canal + ear + preputial gland + skin + thyroid gland + Zymbal's gland, lesion: sebaceous adenocarcinoma + squamous-cell carcinoma + adenoma, NOS + carcinoma, NOS + cystadenoma, NOS + papillary adenoma + basal-ce, dosed 78 weeks, study length 107 weeks); 1610 mg/kg/day (rat, strain Fischer 344, males, in feed, site: liver, lesion: hepatocellular adenoma + hepatocellular carcinoma + neoplastic nodule, dosed 78 weeks, study length 107 weeks); 351 mg/kg/day (rat, strain Fischer 344, males, in feed, site: preputial gland, lesion: adenoma, NOS + carcinoma, NOS + cystadenoma, NOS + papillary adenoma, dosed 78 weeks, study length 107 weeks); 530 mg/kg/day (rat, strain Fischer 344, males, in feed, site: preputial gland, lesion: adenoma, NOS + cystadenoma, NOS + papillary adenoma, dosed 78 weeks, study length 107 weeks); 358 mg/kg/day (rat, strain Fischer 344, males, in feed, site: skin, lesion: basal-cell carcinoma + sebaceous adenocarcinoma + squamous-cell carcinoma, dosed 78 weeks, study length 107 weeks). Also, the TD50 reads like this: (rat, strain Fischer 344, males, in feed, site: thyroid gland, lesion: adenocarcinoma, NOS + follicular-cell carcinoma + papillary adenocarcinoma + papillary cystadenocarcinoma, NOS, dosed 78 weeks, study length 107 weeks) 192 mg/kg/day; (rat, strain Fischer 344, males, in feed, site: thyroid gland, lesion: adenocarcinoma, NOS, dosed 78 weeks, study length 107 weeks) 252 mg/kg/day; (rat, strain Fischer 344, males, in feed, site: thyroid gland, lesion: c-cell adenoma + c-cell carcinoma, dosed 78 weeks, study length 107 weeks) 319 mg/kg/day.
